From patent publication US8952128B2, “Somatostatin-dopamine chimeric analogs” (priority 2012, dated 2015) come the findings set out here.

The target of assay [1] is T1, hSSTR2 (Homo sapiens (Human), UniProt P30874). Kind of assay: Intracellular calcium mobilization assay (FLIPR Calcium 4), hSSTR2.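 On all read-outs here: agonist activity read as intracellular calcium rise in cells expressing human SSTR2, loaded with a calcium-sensitive dye for 60 min at 37 °C, measured by FLIPR.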 Particulars: for Emax: read-out: hSSTR2 % Emax ± SEM. In kind it is cell-based.
Protocol: (§5) The ability of select compounds according to the present invention to activate hSSTR2 and hDRD2 was determined by the intracellular calcium mobilization assay using FLIPR Calcium 4 assay kit (Molecular Devices).
(§6) Cells expressing hSSTR2 or hDRD2 were plated in 384-well microplates in tissue culture media and incubated for 16-24 hours at 37° C. in a humidified atmosphere with 5% CO2. Medium was replaced by loading buffer containing Hank's buffered saline, 20 mM HEPES, 2.5 mM probenecid and Calcium 4 dye, and the plates were incubated at 37° C. for 60 minutes.
Assay [2] has as its target T2, hDRD2 (Homo sapiens (Human), UniProt P14416). Briefly: cell-based.
Protocol: as §5, §6
Assay [3] deals with T1, hSSTR2. Briefly: Somatostatin receptor radioligand binding assay, hSSTR2. Particulars: CHO-K1 membranes, [125I-Tyr]-seglitide; read-out: hSSTR2 Ki (nM) ± SEM.
Protocol: The affinities of a test compound for the human somatostatin receptors were determined by radioligand binding assays in CHO-K1 cells stably transfected with each of the human somatostatin receptor subtypes, hSSTR1-5. The cDNA coding sequences of hSSTR1 (GenBank accession No. NM—001049.1), hSSTR2 (GenBank accession No. XM—012697.1), hSSTR3 (GenBank accession No. XM—009963.1), hSSTR4 (GenBank accession No. NM—001052.1), and hSSTR5 (GenBank accession No. XM—012565.1) were subcloned into the mammalian expression vector pcDNA3.1 (Life Technologies). Clonal cell lines stably expressing each of the somatostatin receptors were obtained by transfection into CHO-K1 cells (ATCC) and subsequently selected with culture media containing 0.8 mg/mL of G418 (Life Technologies).
Membranes for in vitro receptor binding assays were obtained by the following procedures. […] The supernatant containing the plasma membranes was centrifuged at 100,000×g for 30 minutes and the pellet was resuspended in buffer containing 20 mM glycine-glycine, 1 mM MgCl2, 250 mM sucrose, pH 7.2, for storage at −80° C. […]
The next assay addresses hSSTR3 (Homo sapiens (Human), UniProt P32745). Kind of assay: Somatostatin receptor radioligand binding assay, hSSTR3. Particulars: CHO-K1 membranes, [125I-Tyr11]-SRIF-14; read-out: hSSTR3 Ki (nM) ± SEM. The procedure:
(§1) The affinities of a test compound for the human somatostatin receptors were determined by radioligand binding assays in CHO-K1 cells stably transfected with each of the human somatostatin receptor subtypes, hSSTR1-5. […] Clonal cell lines stably expressing each of the somatostatin receptors were obtained by transfection into CHO-K1 cells (ATCC) and subsequently selected with culture media containing 0.8 mg/mL of G418 (Life Technologies).
(§2) Membranes for in vitro receptor binding assays were obtained by the following procedures. CHO-K1 cells expressing one of the somatostatin receptors were homogenized in ice-cold buffer with 10 mM Tris-HCl, 5 mM EDTA, 3 mM EGTA, 1 mM phenylmethylsuphonyl fluoride, pH 7.6, using Polytron PT10-35GT (Kinematica) at 18,000 rpm for 30 seconds and centrifuged at 500×g for 10 minutes. The supernatant containing the plasma membranes was centrifuged at 100,000×g for 30 minutes and the pellet was resuspended in buffer containing 20 mM glycine-glycine, 1 mM MgCl2, 250 mM sucrose, pH 7.2, for storage at −80° C.
(§3) For the hSSTR3 and 4 assays, membranes and various concentrations of test compounds were incubated in 96-well plates for 60 minutes at 25° C. with 0.05 nM [^125I-Tyr^11]-SRIF-14 (PerkinElmer Life Science) in 50 mM HEPES, 0.2% BSA, 5 mM MgCl2, 200 KIU/mL trasylol, 0.02 mg/mL bacitracin, and 0.02 mg/mL phenylmethylsuphonyl fluoride, pH 7.5.
(§4) The incubations were terminated by rapid filtration through GF/C glass microfiber filter plates (pre-wet with 0.3% polyethyleneimine and 0.1% BSA) using a 96-well cell harvester (Brandel). Plates were washed six times with 1 mL/well aliquots of ice-cold buffer containing 50 mM Tris buffer, pH 7.7. Specific binding was defined as the total radioligand bound minus the bound in the presence of 1000 nM SRIF-14.

For the next assay, the target named is hSSTR4 (Homo sapiens (Human), UniProt P31391). Kind of assay: Somatostatin receptor radioligand binding assay, hSSTR4. Particulars: CHO-K1 membranes, [125I-Tyr11]-SRIF-14; read-out: hSSTR4 Ki (nM) ± SEM. The procedure:
as §1, §2, §3, §4

The test system of assay [4] is pituitary tumor cells of acromegalic patients presenting with macroadenoma. Kind of assay: Human pituitary adenoma cell growth hormone release assay. Format: cell-based. Particulars: 18 hours incubation, FIG. 5. How it is done: FIG. 1 is a graph showing the Growth hormone suppressing activity of Compound 4 (see Table I hereinbelow for its chemical name and its corresponding structural representation) on pituitary tumor cells of acromegalic patients presenting with macroadenoma. Various concentrations of Compound 4 were added to the medium and the cells were incubated for 18 hours before measurement of Growth hormone levels in the medium using the AlphaLISA Growth Hormone Immunoassay Research kit (PerkinElmer).
Various concentrations of Compounds 4 and 5 were added to the medium and the cells were incubated for 18 hours before measurement of Growth hormone levels in the medium using the AlphaLISA Growth Hormone Immunoassay Research kit (PerkinElmer).
Acromegalic patients presenting with macroadenoma underwent transsphenoidal surgery and a portion of each tumor obtained at surgery was dissociated by enzymatic and mechanical methods. The cells were cultured in DMEM medium supplemented with 10% FBS and antibiotics for 3 days. The cells were then plated in multi-well tissue culture dishes coated with extracellular matrix from bovine endothelial corneal cells at a density of 3-5×10^4 cells/well in DMEM supplemented with 10% FBS and antibiotics. After 2-3 days of culture, the medium was changed to DMEM supplemented with 1% FBS, antibiotics and 1% ITS (insulin, transferrin and selenium).

The target in assay [5] is T2, hDRD2. In kind it is binding. Particulars: CHO-K1 membranes, [3H]-spiperone; read-out: hDRD2 Ki (nM) ± SEM.

The structures appear in SMILES notation. Read-outs that look alike come from different tables or passages of the source. Numbered stars: 1 amine (or outer) side, 2 acyl side, 3 side chain; on linkers, the order of the positions; unused ones are H or OH. Bridge positions count the residues as written; N and C are the ends. Square brackets hold non-standard residues; d marks the D form. Peptide text beside a SMILES is read from it. * marks the point of attachment. X1 = CN1C[C@H](CSCCN(CCSC[C@@H]2C[C@@H]3c4cccc5[nH]cc(c45)C[C@H]3N(C)C2)[C@H](CCCCN[*:2])C(=O)[*:1])C[C@@H]2c3cccc4[nH]cc(c34)C[C@H]21; X2 = CN1C[C@H](CSCC(=O)*)C[C@@H]2c3cccc4[nH]cc(c34)C[C@H]21; dDab = NCC[C@@H](N)C(=O)O

hSSTR4, sequence (P31391 whole entry): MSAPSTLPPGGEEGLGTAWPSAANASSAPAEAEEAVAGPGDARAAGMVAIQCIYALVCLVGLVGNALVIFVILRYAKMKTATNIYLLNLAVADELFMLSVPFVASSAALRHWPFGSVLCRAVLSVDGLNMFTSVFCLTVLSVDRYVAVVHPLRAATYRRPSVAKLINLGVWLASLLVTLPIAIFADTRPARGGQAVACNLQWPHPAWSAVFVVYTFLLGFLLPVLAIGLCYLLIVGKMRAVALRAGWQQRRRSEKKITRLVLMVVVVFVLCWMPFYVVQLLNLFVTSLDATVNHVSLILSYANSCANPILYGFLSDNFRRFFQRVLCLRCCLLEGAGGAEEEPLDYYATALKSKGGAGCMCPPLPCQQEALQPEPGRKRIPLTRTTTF
T1 sequence (P30874 whole entry): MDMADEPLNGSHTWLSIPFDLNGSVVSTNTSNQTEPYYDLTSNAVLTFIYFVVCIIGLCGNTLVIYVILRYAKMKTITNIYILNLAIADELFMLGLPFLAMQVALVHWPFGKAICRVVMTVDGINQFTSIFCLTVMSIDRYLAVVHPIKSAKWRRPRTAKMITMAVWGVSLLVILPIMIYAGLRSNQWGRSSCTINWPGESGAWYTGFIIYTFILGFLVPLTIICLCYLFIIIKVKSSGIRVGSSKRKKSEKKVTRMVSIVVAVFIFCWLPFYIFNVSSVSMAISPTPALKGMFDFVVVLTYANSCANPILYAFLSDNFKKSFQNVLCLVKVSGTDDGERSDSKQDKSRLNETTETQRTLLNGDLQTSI
hSSTR3, sequence (P32745 whole entry): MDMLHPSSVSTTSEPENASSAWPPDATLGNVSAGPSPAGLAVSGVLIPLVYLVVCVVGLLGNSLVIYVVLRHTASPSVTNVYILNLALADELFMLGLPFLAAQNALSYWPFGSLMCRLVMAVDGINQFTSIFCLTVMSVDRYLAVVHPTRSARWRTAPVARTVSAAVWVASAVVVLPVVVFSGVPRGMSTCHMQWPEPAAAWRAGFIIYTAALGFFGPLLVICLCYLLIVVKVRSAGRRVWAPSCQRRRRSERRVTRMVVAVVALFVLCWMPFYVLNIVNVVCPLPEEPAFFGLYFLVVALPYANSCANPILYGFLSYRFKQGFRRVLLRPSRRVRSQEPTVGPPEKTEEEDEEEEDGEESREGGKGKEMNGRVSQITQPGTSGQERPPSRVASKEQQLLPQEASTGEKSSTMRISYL

Turning to `C[C@@H](O)[C@@H]1NC(=O)[C@H](CCCCN)NC(=O)[C@@H](Cc2c[nH]c3ccccc23)NC(=O)[C@H](Cc2cccnc2)NC(=O)[C@H](Cc2ccccc2)NC(=O)[C@H](CCCNC(=N)N)NC(=O)[C@H](NC[C@H](Cc2ccc(O)cc2)NC(=O)CSC[C@@H]2C[C@@H]3c4cccc5[nH]cc(c45)C[C@H]3N(C)C2)CCCCNC(=O)[C@H](Cc2ccccc2)NC1=O` [Compound 38, Dop1-Tyr-psi(CH2NH)-cyclo(DLys-Arg-Phe-3Pal-DTrp-Lys-Thr-Phe)], the EC50 at hSSTR2 [1] (calcium mobilization, read-out: hSSTR2 EC50 (nM) ± SEM) turned out to be 24.9 ± 7.7 nM; at hDRD2 [2], 7.5 ± 0.1 nM. The Emax on hSSTR2 [1] (maximal effect in percentage of the maximal effect of SRIF-14) was determined as 83.5 ± 4.4%. Also, the Ki on hSSTR2 [3] worked out at 0.76 ± 0.23 nM.

With `C[C@@H](O)[C@@H]1NC(=O)[C@H](CCCCN)NC(=O)[C@@H](Cc2c[nH]c3ccccc23)NC(=O)[C@H](Cc2ccncc2)NC(=O)[C@H](Cc2ccccc2)NC(=O)[C@H](CCCNC(=N)N)NC(=O)[C@H](NCC[S@@+]([O-])C[C@@H]2C[C@@H]3c4cccc5[nH]cc(c45)C[C@H]3N(C)C2)CCCCNC(=O)[C@H](Cc2ccc(O)cc2)NC1=O` [Compound 12, Dop1[(S)SO]-psi(CH2NH)-cyclo(DLys-Arg-Phe-4Pal-DTrp-Lys-Thr-Tyr)], the Ki amounted to 143 ± 65.2 nM on hSSTR3 and 3.2 ± 0.7 nM on hSSTR4. Further, the Emax at hSSTR2 [1] amounted to 90.9 ± 12.9%.

Take `C[C@@H](O)[C@@H]1NC(=O)[C@H](CCCCN)NC(=O)[C@@H](Cc2c[nH]c3ccccc23)NC(=O)[C@H](Cc2ccncc2)NC(=O)[C@H](Cc2ccccc2)NC(=O)[C@H](CCCNC(=N)N)NC(=O)[C@H](NC[C@H](Cc2ccc(O)cc2)NC(=O)CSC[C@@H]2C[C@@H]3c4cccc5[nH]cc(c45)C[C@H]3N(C)C2)CCCCNC(=O)[C@H](Cc2ccccc2)NC1=O` [Compound 4, Dop1-Tyr-psi(CH2NH)-cyclo(DLys-Arg-Phe-4Pal-DTrp-Lys-Thr-Phe)]: on hSSTR2 [1], the EC50 turned out to be 7.6 ± 1.5 nM and the maximal effect (Emax) came to 100 ± 2.9%. Also, the “improvement in EC50 and/or % Emax over Reference Compound B” value on hSSTR2 [1] (calcium mobilization) is listed as “statistically significant improvement”. In addition, the “Growth hormone suppressing activity compared to parent somatostatin analogs” value in assay [4] is “enhanced Growth hormone suppressing activity”. Moreover, the half-maximal effective concentration (EC50) on hDRD2 [2] worked out at 20.1 ± 2.6 nM.

Consider `C[C@@H](O)[C@@H]1NC(=O)[C@H](CCCCN)NC(=O)[C@@H](Cc2c[nH]c3ccccc23)NC(=O)[C@H](Cc2ccccc2)NC(=O)[C@H](Cc2ccccc2)NC(=O)[C@H](CCCNC(=N)N)NC(=O)[C@H](N(CCSC[C@@H]2C[C@@H]3c4cccc5[nH]cc(c45)C[C@H]3N(C)C2)CCSC[C@@H]2C[C@@H]3c4cccc5[nH]cc(c45)C[C@H]3N(C)C2)CCCCNC(=O)[C@H](Cc2ccccc2)NC1=O` [Compound 40, bis[Dop1-psi(CH2N)]-cyclo(DLys-Arg-Phe-Phe-DTrp-Lys-Thr-Phe)] (RFF[dW]KTF; linker N-C via X1), for which, on hDRD2 [5], the Ki came to 445 ± 143 nM. In addition, the Emax on hSSTR2 [1] is 95 ± 6.1%.

For the compound `C[C@@H](O)[C@@H]1NC(=O)[C@H](CCCCN)NC(=O)[C@@H](Cc2c[nH]c3ccccc23)NC(=O)[C@H](Cc2ccccc2)NC(=O)[C@H](Cc2ccccc2)NC(=O)[C@H](CCCNC(=N)N)NC(=O)[C@H](NC[C@H](Cc2ccc(O)cc2)NC(=O)CSC[C@@H]2C[C@@H]3c4cccc5[nH]cc(c45)C[C@H]3N(C)C2)CCCCNC(=O)[C@H](Cc2ccc(F)cc2)NC1=O` [Compound 5, Dop1-Tyr-psi(CH2NH)-cyclo(DLys-Arg-Phe-Phe-DTrp-Lys-Thr-4FPhe)], on hSSTR2 [1], the EC50 turned out to be 14.6 ± 1.9 nM and the Emax came out at 97 ± 3.6%. Also, the “improvement in EC50 and/or % Emax over Reference Compound B” value at hSSTR2 [1] (calcium mobilization) was “statistically significant improvement”. For the same compound, the “Growth hormone suppressing activity compared to parent somatostatin analogs” value in assay [4] is given as “enhanced Growth hormone suppressing activity”. It took 30.1 ± 5.3 nM to reach a half-maximal effect on hDRD2 [2] (EC50).

Take `C[C@@H](O)[C@@H]1NC(=O)[C@H](CCCCN)NC(=O)[C@@H](Cc2c[nH]c3ccccc23)NC(=O)[C@H](Cc2ccccc2)NC(=O)[C@H](Cc2ccccc2)NC(=O)[C@H](CCCNC(=N)N)NC(=O)[C@H](NCCS(=O)(=O)C[C@@H]2C[C@@H]3c4cccc5[nH]cc(c45)C[C@H]3N(C)C2)CCCCNC(=O)[C@H](Cc2ccc(F)cc2)NC1=O` [Compound 10, Dop1(SO2)-psi(CH2NH)-cyclo(DLys-Arg-Phe-Phe-DTrp-Lys-Thr-4FPhe)]: the Ki is 27.9 nM at hSSTR3 and 20.6 nM on hSSTR4. Further, the Emax on hSSTR2 [1] came out at 84.8 ± 13%.

With `C[C@@H](O)[C@@H]1NC(=O)[C@H](CCCCN)NC(=O)[C@@H](Cc2c[nH]c3ccccc23)NC(=O)[C@H](Cc2ccncc2)NC(=O)[C@H](Cc2ccccc2)NC(=O)[C@H](CCCNC(=N)N)NC(=O)[C@H](NCC[S@+]([O-])C[C@@H]2C[C@@H]3c4cccc5[nH]cc(c45)C[C@H]3N(C)C2)CCCCNC(=O)[C@H](Cc2ccc(O)cc2)NC1=O` [Compound 11, Dop1[(R)SO]-psi(CH2NH)-cyclo(DLys-Arg-Phe-4Pal-DTrp-Lys-Thr-Tyr)], the Ki stood at 30.9 ± 11.7 nM on hSSTR3 and 2.1 ± 0.4 nM at hSSTR4. On hSSTR2 [1], the Emax is 92.3 ± 4.6%.

For `C[C@@H](O)[C@@H]1NC(=O)[C@H](CCCCN)NC(=O)[C@@H](Cc2c[nH]c3ccccc23)NC(=O)[C@H](Cc2ccccc2)NC(=O)[C@H](Cc2ccccc2)NC(=O)[C@H](CCCNC(=N)N)NC(=O)[C@H](NC(=O)[C@H](Cc2ccc(O)cc2)NC(=O)CSC[C@@H]2C[C@@H]3c4cccc5[nH]cc(c45)C[C@H]3N(C)C2)CCNC(=O)[C@H](Cc2ccccc2)NC1=O` [Reference Compound B, Dop1-Tyr-cyclo(DDab-Arg-Phe-Phe-DTrp-Lys-Thr-Phe), reference compound] (X2-Y[dDab]RFF[dW]KTF; lactam 2-C), the figures for the Emax at hSSTR2 [1] and on hDRD2 [2] (read-out: hDRD2 % Emax ± SEM) were 66.7 ± 5.8% and 92.8 ± 6.6%, respectively.

Usually EC50 stands for the concentration at which the effect is half-maximal. The Emax is the greatest response seen or fitted, relative to the assay's reference. What is called Ki is the dissociation constant of the complex between target and ligand, obtained from inhibition or displacement.
